Reference: patent publication US6545131B1, “Tissue specific prodrug” (priority 1997, dated 2003)
Starred links: 1 amine or outer side, 2 acyl side, 3 side chain; linkers in the order of their positions; H or OH if unused. Residues, ends and D or L forms follow the SMILES beside them. *: point of attachment. Mu = morpholinocarbonyl, O=C(N1CCOCC1)*; AMC = Cc1cc(=O)oc2cc(N*)ccc12; Morpholide = C1CN(*)CCO1; CO = O=C([*:1])[*:2]; Dox = doxorubicin

How the values were obtained:
[1] = target: T1, PSA (prostate specific antigen) (Homo sapiens, UniProt P07288); assay: Cleavage of AMC-labelled peptide substrates by purified PSA (fluorescence of released AMC; Lineweaver-Burke kinetics); type: biochemical
T1 construct: PSA was purified from human seminal plasma; from tissue; host or cells: human seminal plasma

Elastase = assay: Peptide-AMC cleavage by purified extracellular protease; type: biochemical; settings: 0.2 mM substrate, PSA assay buffer pH 7.8
Plasmin = target: T2, Plasmin (Homo sapiens, UniProt P00747); assay: as above; type: biochemical; settings: 0.2 mM substrate, PSA assay buffer pH 7.8
T2 construct: purchased Calbiochem

Trypsin = assay: as above; type: biochemical; settings: 0.2 mM substrate, PSA assay buffer pH 7.8
chymotrypsin = target: T3, chymotrypsin (Bos taurus, UniProt P00766); assay: as above; type: biochemical; settings: 0.2 mM substrate, PSA assay buffer pH 7.8
T3 construct: purchased Sigma Chemical Co

human kallikrein, hK1 = assay: as above; type: biochemical; settings: 0.2 mM substrate, PSA assay buffer pH 7.8
thrombin = target: T4, thrombin (Homo sapiens, UniProt P00734); assay: as above; type: biochemical; settings: 0.2 mM substrate, PSA assay buffer pH 7.8
T4 construct: purchased Sigma Chemical Co

[2] = target: T5, tissue plasminogen activator (TPA) (Homo sapiens, UniProt P00750); assay: as above; type: biochemical; settings: 0.2 mM substrate, PSA assay buffer pH 7.8
T5 construct: purchased Calbiochem

urokinase = target: T6, urokinase (Homo sapiens, UniProt P00749); assay: as above; type: biochemical; settings: 0.2 mM substrate, PSA assay buffer pH 7.8
T6 construct: purchased Calbiochem

[3] = Stability of PSA substrates in serum (AMC release); type: in vitro ADME; settings: 0.2 mM substrate
Cathepsin B = target: T7, Cathepsin B (Homo sapiens, UniProt P07858); assay: PSA substrate cleavage by purified intracellular protease; type: biochemical; settings: 0.2 mM substrate, pH 7.8; SKLQ, KLQ, LQ in 1.4% acetonitrile/buffer, Q-AMC in 0.2% formic acid/buffer
T7 construct: purchased Sigma Chemical Co
Procedure: (§1) Cleavage was studied by measuring fluorescence change secondary to AMC release. Fluorescence detection was carried out with a Fluoroskan II 96 well fluorometric plate reader (ICN Biomedicals, Costa Mesa, Calif.), with excitation wavelength 355 nm and emission wavelength 460 nm. Data were collected and analyzed using Deltasoft III software (Biometallics, Princeton, N.J.). All reactions were performed at room temperature by the addition of substrate and proteases into PSA buffer, described below, in a final volume of 200 μL. The results were determined from the initial linear increase of fluorescence and were expressed as the picomoles of AMC released per minute based upon comparison to a standard curve of the fluorescence of known amounts of AMC (i.e., fluorescence was linear form 20 to 300 picomoles of AMC). The data were analyzed by Lineweaver-Burke reciprocal plots to determine the Michaelis-Menten constant (i.e., Km) expressed as the amount of substrate needed to saturate half of the enzyme and the catalytic rate constant (i.e., kcat) expressed as the amount of substrate converted to product per time per amount of enzyme.
(§2) A family of peptide substrates based upon the EHSSKLQ (SEQ ID NO:10) sequence was assayed for activity for the intracellular proteases, and the results given in Table 4.
(§3) The amino acid sequences expressed in one letter amino acid code represent the following amino acid sequences in the three letter amino acid code: EHSSKLQ (Glu-His-Ser-Ser-Lys-Leu-Gln; SEQ ID NO:10), The shorter sequences are formed by deleting amino acids from the amino terminal side of the sequence. Determinations listed in the table were carried out with substrates at 0.2 mM concentration in the PSA assay buffer (50 mM Tris/0.1M NaCl pH 7.8), except SKLQ (SEQ ID NO:1), KLQ and LQ, which were carried out in 1.4% acetonitrile/buffer and Q-AMC which was carried out in 0.2% formic acid/buffer, at pH 7.8. The entry “UD” stands for “undetectable” and means that at most, 0.1 pmole of substrate cleavage per minute per 200 pmole protease took place. Asterisks represent experiments not performed. Abbreviations are as follows: PSA (prostate specific antigen), Cath B, C, D (Cathepsins, B, C, D), Esterase (porcine liver esterase).

Cathepsin C = target: T8, Cathepsin C (Homo sapiens, UniProt P53634); assay: as above; type: biochemical; settings: 0.2 mM substrate, pH 7.8; SKLQ, KLQ, LQ in 1.4% acetonitrile/buffer, Q-AMC in 0.2% formic acid/buffer
T8 construct: purchased Sigma Chemical Co
Procedure: as §1, §2, §3

Cathepsin D = target: T9, Cathepsin D (Homo sapiens, UniProt P07339); assay: as above; type: biochemical; settings: 0.2 mM substrate, pH 7.8; SKLQ, KLQ, LQ in 1.4% acetonitrile/buffer, Q-AMC in 0.2% formic acid/buffer
T9 construct: purchased Sigma Chemical Co
Procedure: as §1, §2, §3

porcine liver esterase = assay: as above; type: biochemical; settings: 0.2 mM substrate, pH 7.8; SKLQ, KLQ, LQ in 1.4% acetonitrile/buffer, Q-AMC in 0.2% formic acid/buffer
Procedure: as §1, §2, §3

[4] = target: T10, endoplasmic reticulum Ca2+-ATPase (SERCA), SR vesicles from rabbit skeletal muscle (Oryctolagus cuniculus, UniProt P04191); assay: SERCA inhibition: 45Ca2+ uptake to sarcoplasmic reticulum vesicles; type: biochemical; settings: mean (n=3) ± standard error; 5 μg/ml SR protein, free Ca2+ 100 nM, 4 min uptake; read-out: IC50 (50% inhibition of 45Ca2+ uptake to SR vesicles)
T10 construct: sarcoplasmic reticulum (SR) vesicles prepared from rabbit skeletal muscle; from tissue; host or cells: rabbit skeletal muscle sarcoplasmic reticulum vesicles
Procedure: The primary amine-containing thapsigargin analogs of the invention have endoplasmic reticulum Ca^2+-ATPase inhibitory activity. This activity is measured as the concentration of analog needed to inhibit 50% of this ATPase (IC50). The IC50 of the analogs of the invention is desirably at most 500 nM, preferably at most 200 nM, and more preferably at most 50 nM of analog.
The inhibitory potency of thapsigargin and its analogs was determined as the concentration required to produce 50% inhibition (i.e. IC50) of ^45Ca^2+ uptake to sarcoplasmic reticulum (SR) vesicles prepared from rabbit skeletal muscle by the method of De Meis and Hasselbach (J. Biol. Chem., 246: 4759-4763, 1971). The ^45Ca^2+ uptake assay was as described previously (Christensen, et al., FEBS, 335: 345-348, 1993), with the following modifications: 5 μg/ml of SR protein was incubated at 25EC and free Ca^2+ adjusted to 100 nM using 4 min. uptake time. Under these conditions, Ca^2+ could proceed linearly with time for at least 8 minutes. Measurements of Ca^2+ within TSU cells was determined as described previously (Lin et al., The Prostate, 33:201-207, 1997).
The IC50 results are mean (n=3)±standard error. The LC50 results are mean (n=5)±standard error. The entry “ND” stands for “not determined”. Clonogenic survival not determined above 10 μM for dBTG. Analogs with −boc have a t-butoxycarbonyl (boc) protected amino group.

[5] = Clonogenic survival of TSU-Pr1 cells after 72 hours exposure to TG analogs; type: cell-based, human; settings: human; TSU-Pr1, 72 hours exposure; mean (n=5) ± standard error; read-out: LC50 (concentration needed to kill 50% of clonogenic cells)
In short: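 Androgen-independent human prostate cancer TSU-Pr1 cells (2×10^5) were exposed for 72 h to varying thapsigargin analog concentrations, and clonogenic survival was then assessed. LC50 is the concentration killing 50% of clonogenic cells, reported as mean of n=5 ± SE.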

[6] = Cytotoxic activity (LD50) of thapsigargin and debutanoyl derivative; type: cell-based
Procedure: The starting material for all the synthesized analogs is 8-O-debutanoylthapsigargin, which is easily available by triethylamine catalyzed methanolysis of thapsigargin. Removal of the butanoyl results in loss of cytotoxic activity with an LD50 of >50 μM compared to <100 nM for thapsigargin. Anhydrides of dicarboxylic acids of various lengths afforded analogs in which the acyl group attached to the O-8 ended in a free carboxylic acid. A dicyclohexylcarbodiimide (DCCI) promoted coupling of a 2,4-diaminoarene to the carboxylic acid analogs affords the derivatives in which contain a primary aromatic amine as a potential coupling point for additional moeities.

[7] = target: sarcoplasmic reticulum (SR) and endoplasmic reticulum (ER) Ca2+-ATPase (SERCA) pump; settings: read-out: apparent dissociation constant; cited from earlier work
[8] = cited from earlier work
TSU-Pr1 cells = assay: Clonogenic survival of TSU-Pr1 cells after 48 hr exposure to doxorubicin prodrugs with or without exogenously added PSA; type: cell-based, human; settings: 50 μM prodrug
Procedure: The androgen responsive PSA-producing LNCaP and androgen independent PSA non-producing TSU-Pr1 are human prostate cancer lines were obtained from ATCC (Rockville, Md.) and maintained by serial passage in RPMI 1640 media containing 10% fetal calf serum with 100 units/ml penicillin G, and 100 units/ml streptomycin sulfate (antibiotics from M.A. Bioproducts, Walkerville, Md.) as standard media in 5% CO2/95% air at 37° C. The origins and characteristics of the LNCaP and TSU-Pr1 cell lines are described in Horoszewicz, et al., Cancer Res., 43:1809-1818, (1980)and Iizumi, et al., J. Urol, 137: 1304-1306, (1987).
Percentage clonogenic survival of TSU-Pr1 (2×10^5 cells) following 48 hr. exposure to varying concentrations of doxorubicin prodrugs with or without exogenously added PSA was performed as described in Martikainen et al., Cancer Res., 51:4693-4700, (1991).
Results for Mu-His-Ser-Ser-Lys-Leu-Gln-doxorubicin (SEQ ID NO:16) at 50 μM, were 122 colonies for treatment without PSA, and 110 colonies for treatment with 30 μg/ml enzymatically active PSA. Results are shown as averages (n=5) with standard error of 2 to 7. Assays were done in triplicate.

[9] = PSA substrate, PSA assay buffer pH 7.8, Lineweaver-Burke

T1 sequence (P07288 25-261): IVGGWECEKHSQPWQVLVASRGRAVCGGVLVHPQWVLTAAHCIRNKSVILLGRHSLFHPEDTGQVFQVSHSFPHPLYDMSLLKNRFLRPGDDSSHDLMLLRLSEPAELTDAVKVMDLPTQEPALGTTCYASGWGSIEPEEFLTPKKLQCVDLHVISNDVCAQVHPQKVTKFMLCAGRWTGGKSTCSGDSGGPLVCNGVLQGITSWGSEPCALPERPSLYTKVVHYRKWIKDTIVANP
T10 sequence (P04191 1-994 isoform P04191-2): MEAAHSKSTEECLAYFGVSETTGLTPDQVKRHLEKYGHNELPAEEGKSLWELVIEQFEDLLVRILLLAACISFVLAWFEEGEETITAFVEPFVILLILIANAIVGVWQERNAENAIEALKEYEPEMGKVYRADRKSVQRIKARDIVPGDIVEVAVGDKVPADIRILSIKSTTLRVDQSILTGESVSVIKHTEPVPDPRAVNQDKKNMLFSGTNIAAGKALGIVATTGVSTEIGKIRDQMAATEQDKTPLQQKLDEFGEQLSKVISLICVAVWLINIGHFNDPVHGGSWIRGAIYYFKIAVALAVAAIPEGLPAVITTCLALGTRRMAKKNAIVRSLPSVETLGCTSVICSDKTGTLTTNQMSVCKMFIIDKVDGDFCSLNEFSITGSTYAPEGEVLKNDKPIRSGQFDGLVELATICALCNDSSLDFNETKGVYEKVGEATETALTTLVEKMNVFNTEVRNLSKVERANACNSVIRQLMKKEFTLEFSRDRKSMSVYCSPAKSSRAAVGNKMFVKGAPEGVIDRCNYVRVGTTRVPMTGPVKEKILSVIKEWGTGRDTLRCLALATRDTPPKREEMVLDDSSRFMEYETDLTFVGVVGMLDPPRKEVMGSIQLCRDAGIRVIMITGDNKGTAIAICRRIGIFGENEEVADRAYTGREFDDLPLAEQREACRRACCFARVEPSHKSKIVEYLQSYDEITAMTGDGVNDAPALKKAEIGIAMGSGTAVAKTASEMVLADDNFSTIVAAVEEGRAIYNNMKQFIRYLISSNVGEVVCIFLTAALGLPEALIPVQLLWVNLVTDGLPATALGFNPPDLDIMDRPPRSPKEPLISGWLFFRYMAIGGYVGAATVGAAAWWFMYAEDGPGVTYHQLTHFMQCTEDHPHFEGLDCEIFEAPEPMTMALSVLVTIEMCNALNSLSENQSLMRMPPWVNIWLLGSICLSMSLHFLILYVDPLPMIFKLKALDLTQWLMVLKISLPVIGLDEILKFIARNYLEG
T8 sequence (P53634 25-463): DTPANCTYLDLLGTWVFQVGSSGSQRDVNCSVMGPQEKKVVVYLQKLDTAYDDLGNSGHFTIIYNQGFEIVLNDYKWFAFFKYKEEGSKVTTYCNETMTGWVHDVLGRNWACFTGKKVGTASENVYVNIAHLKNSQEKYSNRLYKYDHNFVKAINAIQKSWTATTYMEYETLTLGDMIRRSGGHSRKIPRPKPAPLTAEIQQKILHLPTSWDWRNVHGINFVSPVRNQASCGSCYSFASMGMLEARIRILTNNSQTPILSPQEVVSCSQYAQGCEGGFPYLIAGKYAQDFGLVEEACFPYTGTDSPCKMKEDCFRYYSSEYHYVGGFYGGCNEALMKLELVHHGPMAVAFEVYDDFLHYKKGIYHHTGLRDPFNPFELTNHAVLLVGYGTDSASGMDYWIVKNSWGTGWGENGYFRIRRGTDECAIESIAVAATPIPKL
T5 sequence (P00750 36-562, species assumed): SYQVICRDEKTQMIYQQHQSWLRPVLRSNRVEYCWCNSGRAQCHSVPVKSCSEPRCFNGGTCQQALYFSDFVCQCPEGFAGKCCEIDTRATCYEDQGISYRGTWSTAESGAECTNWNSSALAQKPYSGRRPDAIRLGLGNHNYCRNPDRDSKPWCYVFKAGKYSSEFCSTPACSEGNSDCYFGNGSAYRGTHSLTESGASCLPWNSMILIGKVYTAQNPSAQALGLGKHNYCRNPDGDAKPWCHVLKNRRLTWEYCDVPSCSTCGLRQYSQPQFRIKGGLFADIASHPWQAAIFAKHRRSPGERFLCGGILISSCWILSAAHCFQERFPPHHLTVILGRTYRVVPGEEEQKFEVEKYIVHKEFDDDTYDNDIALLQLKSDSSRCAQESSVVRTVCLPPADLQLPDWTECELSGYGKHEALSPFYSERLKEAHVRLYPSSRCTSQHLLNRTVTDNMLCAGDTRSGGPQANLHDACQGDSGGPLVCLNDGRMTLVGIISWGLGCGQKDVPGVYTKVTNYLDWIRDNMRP
T2 sequence (P00747 581-810 limits assumed, species assumed): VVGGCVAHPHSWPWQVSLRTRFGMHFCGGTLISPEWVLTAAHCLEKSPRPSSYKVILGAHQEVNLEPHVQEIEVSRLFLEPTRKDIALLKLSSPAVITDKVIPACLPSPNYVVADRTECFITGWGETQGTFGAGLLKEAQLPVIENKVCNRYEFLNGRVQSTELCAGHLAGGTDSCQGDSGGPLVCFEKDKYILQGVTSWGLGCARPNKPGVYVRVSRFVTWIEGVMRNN
T2 sequence (P00747 97-580 partner limits assumed, species assumed): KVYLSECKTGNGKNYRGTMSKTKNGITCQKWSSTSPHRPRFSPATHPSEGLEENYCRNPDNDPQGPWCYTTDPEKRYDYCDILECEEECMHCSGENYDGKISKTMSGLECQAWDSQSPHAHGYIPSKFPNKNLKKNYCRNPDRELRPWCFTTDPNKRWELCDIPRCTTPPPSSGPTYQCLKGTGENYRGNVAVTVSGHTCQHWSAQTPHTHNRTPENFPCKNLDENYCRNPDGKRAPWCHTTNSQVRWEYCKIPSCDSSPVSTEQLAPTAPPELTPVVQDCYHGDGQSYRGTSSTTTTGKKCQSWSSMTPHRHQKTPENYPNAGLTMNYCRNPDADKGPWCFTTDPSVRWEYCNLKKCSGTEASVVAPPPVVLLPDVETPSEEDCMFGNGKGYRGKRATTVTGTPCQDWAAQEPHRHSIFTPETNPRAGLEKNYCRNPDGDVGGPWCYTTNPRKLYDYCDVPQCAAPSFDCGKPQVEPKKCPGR
T9 sequence (P07339 65-412): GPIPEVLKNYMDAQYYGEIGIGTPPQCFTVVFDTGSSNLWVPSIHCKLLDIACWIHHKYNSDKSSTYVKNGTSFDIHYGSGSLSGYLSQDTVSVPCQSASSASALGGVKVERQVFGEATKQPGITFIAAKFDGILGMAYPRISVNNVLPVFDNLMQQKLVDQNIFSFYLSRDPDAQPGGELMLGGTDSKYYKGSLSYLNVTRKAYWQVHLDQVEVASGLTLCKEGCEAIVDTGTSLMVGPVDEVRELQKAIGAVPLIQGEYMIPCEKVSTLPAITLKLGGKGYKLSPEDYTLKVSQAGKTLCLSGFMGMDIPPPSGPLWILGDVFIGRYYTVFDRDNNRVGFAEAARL

Compound: Cc1cc(=O)oc2cc(NC(=O)[C@H](CCC(N)=O)NC(=O)[C@H](CC(C)C)NC(=O)[C@H](CCCCN)NC(=O)[C@H](CO)NC(=O)[C@H](CO)NC(=O)[C@H](Cc3c[nH]cn3)NC(=O)[C@H](CCC(=O)O)NC(=O)N3CCOCC3)ccc12 [EHSSKLQ, Glu-His-Ser-Ser-Lys-Leu-Gln] ({Morpholide-CO}-EHSSKLQ-{AMC})
- Picomoles of substrate cleaved/minute/200 pmoles of indicated protease: PSA ([1]; 0.2 mM substrate, PSA assay buffer pH 7.8, room temperature): 31.6 picomoles/minute/200 pmoles pr
- picomoles of peptide cleaved/min/200 picomoles protease: PSA ([1]; 0.2 mM substrate, pH 7.8, SKLQ, KLQ, LQ in 1.4% acetonitrile/buffer, Q-AMC in 0.2% formic acid/buffer): 31.6 picomoles/min/200 picomoles pr
- Kcat [1, 9]: 0.02 s⁻¹
- Km [1, 9]: 1160 µM
- Picomoles of substrate cleaved/minute/200 pmoles of indicated protease: Elastase (Elastase): UD (at most, 0.1 pmole of substrate cleavage per minute per 200 pmole protease took place)
- Picomoles of substrate cleaved/minute/200 pmoles of indicated protease: Plasmin (Plasmin): UD (at most, 0.1 pmole of substrate cleavage per minute per 200 pmole protease took place)
- Picomoles of substrate cleaved/minute/200 pmoles of indicated protease: Trypsin (Trypsin): UD (at most, 0.1 pmole of substrate cleavage per minute per 200 pmole protease took place)
- Picomoles of substrate cleaved/minute/200 pmoles of indicated protease: Chymo (chymotrypsin): UD (at most, 0.1 pmole of substrate cleavage per minute per 200 pmole protease took place)
- Picomoles of substrate cleaved/minute/200 pmoles of indicated protease: Kallik (human kallikrein, hK1): UD (at most, 0.1 pmole of substrate cleavage per minute per 200 pmole protease took place)
- Picomoles of substrate cleaved/minute/200 pmoles of indicated protease: Thromb (thrombin): UD (at most, 0.1 pmole of substrate cleavage per minute per 200 pmole protease took place)
- Picomoles of substrate cleaved/minute/200 pmoles of indicated protease: TPA [2]: UD (at most, 0.1 pmole of substrate cleavage per minute per 200 pmole protease took place)
- Picomoles of substrate cleaved/minute/200 pmoles of indicated protease: Urokin (urokinase): UD (at most, 0.1 pmole of substrate cleavage per minute per 200 pmole protease took place)
- picomles AMC released/minute: Calf [3]: UD (not more than 0.01 picomole of substrate per minute was cleaved)
- picomles AMC released/minute: Fetal Calf [3]: UD (not more than 0.01 picomole of substrate per minute was cleaved)
- picomles AMC released/minute: Goat [3]: UD (not more than 0.01 picomole of substrate per minute was cleaved)
- picomles AMC released/minute: Mouse [3]: 2.17 picomoles/minute
- picomles AMC released/minute: Rat [3]: 0.06 picomoles/minute
- picomles AMC released/minute: Human ([3]; human serum 100%): UD (not more than 0.01 picomole of substrate per minute was cleaved)
- picomoles of peptide cleaved/min/200 picomoles protease: Cath B (Cathepsin B): 4.3 picomoles/min/200 picomoles pr
- picomoles of peptide cleaved/min/200 picomoles protease: Cath C (Cathepsin C): UD (at most, 0.1 pmole of substrate cleavage per minute per 200 pmole protease took place)
- picomoles of peptide cleaved/min/200 picomoles protease: Cath D (Cathepsin D): 2.2 picomoles/min/200 picomoles pr
- picomoles of peptide cleaved/min/200 picomoles protease: Esterase (porcine liver esterase): UD (at most, 0.1 pmole of substrate cleavage per minute per 200 pmole protease took place)

Compound: C/C=C(/C)C(=O)O[C@H]1C(C)=C2[C@H]([C@@H]1OC(=O)CCCCCCC)[C@@](C)(OC(C)=O)C[C@H](OC(=O)CCC)[C@@]1(O)[C@H]2OC(=O)[C@@]1(C)O [TG, Thapsigargin]
- IC50 [4]: 5 ± 0.3 nM
- CC50 [5]: 30 ± 4 nM
- LD50 (cytotoxic activity) [6]: < 0.1 µM
- Kd [7]: ≤ 0.0022 nM
- solubility in water [8]: poorly soluble in water

Compound: C/C=C(/C)C(=O)O[C@H]1C(C)=C2[C@H]([C@@H]1OC(=O)CCCCCCC)[C@@](C)(OC(C)=O)C[C@H](O)[C@@]1(O)[C@H]2OC(=O)[C@@]1(C)O [dBTG, 8-O-debutanoylthapsigargin, reference compound]
- IC50 [4]: 149 ± 21 nM
- CC50 [5]: > 10000 nM
- LD50 (cytotoxic activity) [6]: > 50 µM

Compound: Mu-His-Ser-Ser-Lys-Leu-Gln-doxorubicin (Mu-HSSKLQ-Dox; listed as Homo sapiens) [doxorubicin prodrug without Leu linker; b202 describes it as acetyl-capped]
- number of TSU-Pr1 colonies, treatment with 30 μg/ml enzymatically active PSA (TSU-Pr1 cells; with 30 μg/ml PSA): 110 colonies
- number of TSU-Pr1 colonies, treatment without PSA (TSU-Pr1 cells; without PSA): 122 colonies
